# Patent publication US12629385B2, “Stable AST-3424 injection preparation and preparation method” (OBI PHARMA, INC., priority 2019, dated 2026)
# Experiments:
# [1] = Study on solution stability of AST-3424 in different solutions (HPLC content, pH); format: physicochemical
# Procedure: Approximate 107.32 mg of AST-3424 (50% v/v, ethanol) was measured, and put in 50-ml volumetric flasks, to which solvents (organic solvents, buffer solutions, or purified water) were added to the scale, respectively. At each predetermined time point, 1 ml of the sample was measured for HPLC analysis. If API was stable in different pH solutions, the sampling time would be extended, e.g., 5 days or longer.
# (§1) For samples used for the assay in the solubility study, about 1 ml of the culture medium was measured, then the resultant was centrifuged at 10000 rpm for 10 min, and the clear solution in […] was collected for HPLC analysis. For the study on solution stability, the samples could be directly injected into HPLC for analysis.
# (§2) Content determination by HPLC method: AST-3424 was used as an external standard for quantitation.
# UVDAD detector: wavelength: 230 nm. C18 column, column temperature: 25° C.
# • A: 10 mmol/L ammonium acetate solution obtained by dissolving ammonium acetate in a mixed solvent of 95% water and 5% acetonitrile by volume; • B: 8 mmol/L ammonium acetate solution obtained by dissolving ammonium acetate in a mixed solvent of 95% acetonitrile and 5% water by volume;
# Gradient elution was performed.
# [2] = Solubility test of AST-3424 at 25° C. (shaking incubator, HPLC content, pH); format: physicochemical; settings: for Content (solubility study): 25° C.
# Procedure: An appropriate amount of AST-3424 (hereinafter referred to as the active pharmaceutical ingredient or API) was measured, and put in a suitable container containing 40 ml of the above solution (20 ml for an organic solvent) until there were excessive AST-3424 oil droplets in the solution.
# The samples were placed in a constant-temperature shaking incubator, the temperature of which was maintained at 25° C. The samples were shaken at an appropriate speed (100 rpm). Sampling was carried out at each predetermined time point as listed in Table 1, and the pH was examined. Then, the samples were centrifuged (10000 rpm, 10 min), and diluted to a concentration suitable for HPLC analysis (note: accurately recording the dilution ratio after the test) by adding the corresponding solution or organic solvent (dissolving API for solubility study), so as to obtain solubility data.
# as §1, §2
# According to the results of solution stability, AST-3424 was very unstable in the pH4.5 acetate buffer. Therefore, the solubility was tested in the pH6.8 phosphate buffer, the pH7.4 phosphate buffer, the pH10.0 alkaline borate buffer, and the purified water. An appropriate amount of AST-3424 was weighed and put into 40 mL of medium (ethanol/propylene glycol: 8 mL, 50:50V/V) until there were excessive floccules in the solution. If the solubility of API in the aqueous solution was greater than 2% (20 mg/ml), there was no need to add more API.
structure (smiles),measurement,setting,value
"C[C@H](OP(=O)(N1CC1)N1CC1)c1ccc([N+](=O)[O-])c(Oc2cccc(C(=O)N(C)C)c2)c1 [AST-3424, (S)-1-(3-(3-N,N-dimethylaminocarbonyl)phenoxyl-4-nitrophenyl)-1-ethyl-N,N′-bis(ethylene)phosphoramidate]",pH value,"[1]; AST-3424 solution in pH 4.5 acetate buffer, 0 h",4.497
same,pH value,"[1]; AST-3424 solution in pH 4.5 acetate buffer, 72 h",4.477
same,pH value,"[1]; AST-3424 solution in pH 6.8 phosphate buffer, 0 h",6.815
same,pH value,"[1]; AST-3424 solution in pH 6.8 phosphate buffer, 72 h",6.855
same,pH value,"[1]; AST-3424 solution in pH 7.4 phosphate buffer, 0 h",7.481
same,pH value,"[1]; AST-3424 solution in pH 7.4 phosphate buffer, 72 h",7.534
same,pH value,"[1]; AST-3424 solution in pH 10.0 alkaline borate buffer, 0 h",9.984
same,pH value,"[1]; AST-3424 solution in pH 10.0 alkaline borate buffer, 72 h",10.023
same,pH value,"[1]; AST-3424 solution in purified water, 0 h",5.152
same,pH value,"[1]; AST-3424 solution in purified water, 72 h",6.435
same,Content,"[1]; Ethanol/propylene glycol (50:50, v/v), 0 h, room temperature",1.295 mg/mL
same,Content,"[1]; Ethanol/propylene glycol (50:50, v/v), 1 h, room temperature",1.287 mg/mL
same,Content,"[1]; Ethanol/propylene glycol (50:50, v/v), 4 h, room temperature",1.287 mg/mL
same,Content,"[1]; Ethanol/propylene glycol (50:50, v/v), 8 h, room temperature",1.287 mg/mL
same,Content,"[1]; Ethanol/propylene glycol (50:50, v/v), 24 h, room temperature",1.302 mg/mL
same,Content,"[1]; Ethanol/propylene glycol (50:50, v/v), 48 h, room temperature",1.284 mg/mL
same,Content,"[1]; Ethanol/propylene glycol (50:50, v/v), 72 h, room temperature",1.275 mg/mL
same,Content,"[1]; Ethanol, 0 h, room temperature",1.238 mg/mL
same,Content,"[1]; Ethanol, 1 h, room temperature",1.280 mg/mL
same,Content,"[1]; Ethanol, 4 h, room temperature",1.246 mg/mL
same,Content,"[1]; Ethanol, 8 h, room temperature",1.240 mg/mL
same,Content,"[1]; Ethanol, 24 h, room temperature",1.240 mg/mL
same,Content,"[1]; Ethanol, 48 h, room temperature",1.278 mg/mL
same,Content,"[1]; Ethanol, 72 h, room temperature",1.236 mg/mL
same,Content,"[1]; Purified water, 0 h, room temperature",1.186 mg/mL
same,Content,"[1]; Purified water, 1 h, room temperature",1.126 mg/mL
same,Content,"[1]; Purified water, 4 h, room temperature",1.056 mg/mL
same,Content,"[1]; Purified water, 8 h, room temperature",1.005 mg/mL
same,Content,"[1]; Purified water, 24 h, room temperature",0.918 mg/mL
same,Content,"[1]; Purified water, 48 h, room temperature",0.860 mg/mL
same,Content,"[1]; Purified water, 72 h, room temperature",0.810 mg/mL
same,Solution stability,[1]; pH4.5 acetate buffer,very unstable
same,Content,"[1]; pH 4.5 acetate buffer, 0 h, room temperature",0.673 mg/mL
same,Content,"[1]; pH 4.5 acetate buffer, 1 h, room temperature",0.413 mg/mL
same,Content,"[1]; pH 4.5 acetate buffer, 4 h, room temperature",0.218 mg/mL
same,Content,"[1]; pH 4.5 acetate buffer, 8 h, room temperature",0.093 mg/mL
same,Content,"[1]; pH 4.5 acetate buffer, 24 h, room temperature",0.013 mg/mL
same,Content,"[1]; pH 6.8 phosphate buffer, 0 h, room temperature",1.202 mg/mL
same,Content,"[1]; pH 6.8 phosphate buffer, 1 h, room temperature",1.200 mg/mL
same,Content,"[1]; pH 6.8 phosphate buffer, 4 h, room temperature",1.193 mg/mL
same,Content,"[1]; pH 6.8 phosphate buffer, 8 h, room temperature",1.185 mg/mL
same,Content,"[1]; pH 6.8 phosphate buffer, 24 h, room temperature",1.168 mg/mL
same,Content,"[1]; pH 6.8 phosphate buffer, 48 h, room temperature",1.145 mg/mL
same,Content,"[1]; pH 6.8 phosphate buffer, 72 h, room temperature",1.102 mg/mL
same,Solution stability,[1]; pH7.4 phosphate buffer,stable
same,Content,"[1]; pH 7.4 phosphate buffer, 0 h, room temperature",1.267 mg/mL
same,Content,"[1]; pH 7.4 phosphate buffer, 1 h, room temperature",1.266 mg/mL
same,Content,"[1]; pH 7.4 phosphate buffer, 4 h, room temperature",1.266 mg/mL
same,Content,"[1]; pH 7.4 phosphate buffer, 8 h, room temperature",1.262 mg/mL
same,Content,"[1]; pH 7.4 phosphate buffer, 24 h, room temperature",1.262 mg/mL
same,Content,"[1]; pH 7.4 phosphate buffer, 48 h, room temperature",1.249 mg/mL
same,Content,"[1]; pH 7.4 phosphate buffer, 72 h, room temperature",1.228 mg/mL
same,Content,"[1]; pH 10.0 (alkaline borate buffer), 0 h, room temperature",1.265 mg/mL
same,Content,"[1]; pH 10.0 (alkaline borate buffer), 1 h, room temperature",1.265 mg/mL
same,Content,"[1]; pH 10.0 (alkaline borate buffer), 4 h, room temperature",1.261 mg/mL
same,Content,"[1]; pH 10.0 (alkaline borate buffer), 8 h, room temperature",1.258 mg/mL
same,Content,"[1]; pH 10.0 (alkaline borate buffer), 24 h, room temperature",1.261 mg/mL
same,Content,"[1]; pH 10.0 (alkaline borate buffer), 48 h, room temperature",1.257 mg/mL
same,Content,"[1]; pH 10.0 (alkaline borate buffer), 72 h, room temperature",1.242 mg/mL
same,Time for which API was stable in solution,"[1]; room temperature, ethanol, ethanol/propylene glycol=1/1, pH7.4 and pH10.0 buffer solutions",at least 72 h
same,Solution stability,"[1]; room temperature, pH4.5 solution and water",unstable
same,Time for which API was stable in solution,"[1]; room temperature, pH6.8 solution",at least 24 h
same,Solution stability,[1]; water and pH6.8 phosphate buffer,relatively poor stability
same,Content (solubility study),"[2]; Ethanol/propylene glycol (50:50, v/v), 1 h",271.28 mg/mL
same,Content (solubility study),"[2]; Ethanol/propylene glycol (50:50, v/v), 8 h",301.33 mg/mL
same,Content (solubility study),"[2]; Ethanol/propylene glycol (50:50, v/v), 24 h",298.85 mg/mL
same,"Solubility, description of terms","[2]; alcohol solvents such as ethanol/propylene glycol (50:50, v/v)",Freely soluble
same,pH value (solubility study),"[2]; excess AST-3424 in pH 6.8 phosphate buffer, 1 h",6.856
same,pH value (solubility study),"[2]; excess AST-3424 in pH 6.8 phosphate buffer, 4 h",6.837
same,pH value (solubility study),"[2]; excess AST-3424 in pH 6.8 phosphate buffer, 8 h",6.855
same,pH value (solubility study),"[2]; excess AST-3424 in pH 6.8 phosphate buffer, 24 h",6.841
same,pH value (solubility study),"[2]; excess AST-3424 in pH 6.8 phosphate buffer, 48 h",6.860
same,pH value (solubility study),"[2]; excess AST-3424 in pH 7.4 phosphate buffer, 1 h",7.477
same,pH value (solubility study),"[2]; excess AST-3424 in pH 7.4 phosphate buffer, 4 h",7.462
same,pH value (solubility study),"[2]; excess AST-3424 in pH 7.4 phosphate buffer, 8 h",7.475
same,pH value (solubility study),"[2]; excess AST-3424 in pH 7.4 phosphate buffer, 24 h",7.455
same,pH value (solubility study),"[2]; excess AST-3424 in pH 7.4 phosphate buffer, 48 h",7.482
same,pH value (solubility study),"[2]; excess AST-3424 in pH 10.0 alkaline borate buffer, 1 h",9.998
same,pH value (solubility study),"[2]; excess AST-3424 in pH 10.0 alkaline borate buffer, 4 h",9.980
same,pH value (solubility study),"[2]; excess AST-3424 in pH 10.0 alkaline borate buffer, 8 h",9.971
same,pH value (solubility study),"[2]; excess AST-3424 in pH 10.0 alkaline borate buffer, 24 h",9.932
same,pH value (solubility study),"[2]; excess AST-3424 in pH 10.0 alkaline borate buffer, 48 h",9.952
same,pH value (solubility study),"[2]; excess AST-3424 in purified water, 1 h",5.004
same,pH value (solubility study),"[2]; excess AST-3424 in purified water, 4 h",5.651
same,pH value (solubility study),"[2]; excess AST-3424 in purified water, 8 h",5.971
same,pH value (solubility study),"[2]; excess AST-3424 in purified water, 24 h",6.378
same,pH value (solubility study),"[2]; excess AST-3424 in purified water, 48 h",6.512
same,"Solubility (initial investigation, words)","[2]; methanol, propanol, butanol, ethylene glycol, propylene glycol, glycerol, 1,3-butanediol, 1,2-butanediol",good solubility
same,Content (solubility study),"[2]; pH 6.8 (phosphate buffer), 4 h",22.92 mg/mL
same,Content (solubility study),"[2]; pH 6.8 (phosphate buffer), 8 h",23.03 mg/mL
same,pH of the solutions of API at different time points,"[2]; pH6.8, pH7.4 and pH10.0 media",remained unchanged
same,Content (solubility study),"[2]; pH 7.4 (phosphate buffer), 1 h",23.65 mg/mL
same,Content (solubility study),"[2]; pH 7.4 (phosphate buffer), 4 h",23.47 mg/mL
same,Content (solubility study),"[2]; pH 7.4 (phosphate buffer), 8 h",23.56 mg/mL
same,Content (solubility study),"[2]; pH 7.4 (phosphate buffer), 24 h",23.65 mg/mL
same,Content (solubility study),"[2]; pH 10.0 (alkaline borate buffer), 1 h",23.50 mg/mL
same,Content (solubility study),"[2]; pH 10.0 (alkaline borate buffer), 4 h",23.56 mg/mL
same,Content (solubility study),"[2]; pH 10.0 (alkaline borate buffer), 8 h",23.48 mg/mL
same,Content (solubility study),"[2]; pH 10.0 (alkaline borate buffer), 24 h",23.49 mg/mL
same,"Solubility, description of terms","[2]; water, pH6.8 phosphate buffer, pH7.4 phosphate buffer, pH10.0 alkaline borate buffer",sparingly soluble
